# Laboratory results taken from patent publication US12233106B2, “C-type natriuretic peptide variants to treat skeletal dysplasia in children” (priority 2021, dated 2025).
# Legend:
# [1] = clinical; conditions: human, in vivo, 15 ug/kg
# Text: Primary endpoints include length/height Z-score at Week 52 and evaluation of any adverse events. Secondary endpoints include AGV at Week 52, Bilateral X-rays of lower extremities, Lumbar spine X-rays, DXA of whole body and spine, AUC0-∞, AUC0-t, Cmax, Tmax, t1/2, CL/F, VZ/F, Hip monitoring clinical assessments, Bayley-III, WeeFIM, and ITQOL scores, CBCL scores, Anti-vosoritide total antibody (TAb), Anti-vosoritide antibody cross-reactivity with endogenous CNP, ANP, and BNP (TAb), Anti-vosoritide neutralizing antibody (NAb), CXM and bone-specific alkaline phosphatase, Collagen type II (CTX-II), Cyclic guanosine monophosphate (cGMP), anthropometric measurements, upper to lower body segment ratio, upper arm length to lower arm (forearm) length ratio, upper leg length (thigh) to knee to heel length ratio, upper leg length (thigh) to tibial length ratio, and arm span to standing height ratio.
# The pharmacokinetics of vosoritide in the different populations of patients was also analyzed for any change in PK (Table 4). PD information (plasma cGMP and serum CXM) in 4 sentinel subjects and 33 randomized subjects (aged≥24 to <60 months) receiving 30 μg/kg vosoritide was available.
# [2] = in vivo
# [3] = normal human; cited from earlier work
Compound,"CL/F ([1]; Mean CL/F, range over visits) [L/h/kg]","Vd/F ([1]; Mean Vz/F, range over visits) [L/kg]","Tmax ([1]; Median Tmax, range over visits) [min]","Cmax ([1]; mean Cmax, range over visits) [ng/mL]","half-life ([1]; mean t1/2, range over visits) [min]","Tmax ([1]; sc, tmax, median [minimum, maximum]) [min]",Adverse event of grade two or higher related to the study drug (CTCAE v5.0) [2],in vivo (plasma) half-life [3] [min]
CC[C@H](C)[C@@H]1NC(=O)[C@H](CCCNC(=N)N)NC(=O)[C@H](CC(=O)O)NC(=O)[C@H](CC(C)C)NC(=O)[C@H](CCCCN)NC(=O)[C@H](CC(C)C)NC(=O)CNC(=O)[C@H](Cc2ccccc2)NC(=O)[C@@H](NC(=O)CNC(=O)[C@H](CCCCN)NC(=O)[C@H](CO)NC(=O)[C@H](CC(C)C)NC(=O)CNC(=O)[C@H](CCCCN)NC(=O)[C@H](CCCCN)NC(=O)[C@H](CC(N)=O)NC(=O)[C@H](C)NC(=O)CNC(=O)[C@H](CCCCN)NC(=O)[C@H](Cc2ccc(O)cc2)NC(=O)[C@H](CCCCN)NC(=O)[C@H](CCCNC(=N)N)NC(=O)[C@H](C)NC(=O)[C@H](CC(N)=O)NC(=O)[C@@H]2CCCN2C(=O)[C@H](Cc2c[nH]cn2)NC(=O)[C@H](CCC(=O)O)NC(=O)[C@H](CCC(N)=O)NC(=O)CNC(=O)[C@@H]2CCCN2)CSSC[C@@H](C(=O)O)NC(=O)CNC(=O)[C@H](CC(C)C)NC(=O)CNC(=O)[C@H](CO)NC(=O)[C@H](CCSC)NC(=O)[C@H](CO)NC(=O)CNC1=O [vosoritide],4.93 to 9,2.65 to 3.8,14 to 15.5,3.81 to 6.86,15.2 to 29.3,14,No patient,
CNP: mature 22-amino acid C-type natriuretic peptide (wild type CNP-22),,,,,,,,2.6
